Test results: ChEMBL document CHEMBL1141886, “QSAR study on the antibacterial activity of some sulfa drugs: building blockers of Mannich bases” (2005)

Tests used:
Type in all cases: functional
[1] = system: Bacillus subtilis; experiment: Antibacterial activity of compound against Bacillus subtilis at 80 ug/mL expressed as zone of inhibition
[2] = system: Escherichia coli; experiment: Antibacterial activity of compound against Escherichia coli at 10 ug/mL expressed as zone of inhibition
[3] = system: Klebsiella pneumoniae; experiment: Antibacterial activity of compound against Klebsiella pneumoniae at 10 ug/mL expressed as zone of inhibition
[4] = system: Escherichia coli; experiment: Antibacterial activity of compound against Escherichia coli at 40 ug/mL expressed as zone of inhibition
[5] = system: Bacillus subtilis; experiment: Antibacterial activity of compound against Bacillus subtilis at 40 ug/mL expressed as zone of inhibition
[6] = system: Bacillus subtilis; experiment: Antibacterial activity of compound against Bacillus subtilis at 20 ug/mL expressed as zone of inhibition
[7] = system: Klebsiella pneumoniae; experiment: Antibacterial activity of compound against Klebsiella pneumoniae at 80 ug/mL expressed as zone of inhibition
[8] = system: Escherichia coli; experiment: Antibacterial activity of compound against Escherichia coli at 80 ug/mL expressed as zone of inhibition
[9] = system: Escherichia coli; experiment: Antibacterial activity of compound against Escherichia coli at 20 ug/mL expressed as zone of inhibition
[10] = system: Klebsiella pneumoniae; experiment: Antibacterial activity of compound against Klebsiella pneumoniae at 40 ug/mL expressed as zone of inhibition
[11] = system: Bacillus subtilis; experiment: Antibacterial activity of compound against Bacillus subtilis at 10 ug/mL expressed as zone of inhibition
[12] = system: Klebsiella pneumoniae; experiment: Antibacterial activity of compound against Klebsiella pneumoniae at 20 ug/mL expressed as zone of inhibition

`Nc1ccc(S(=O)(=O)Nc2ncccn2)cc1` [SULFADIAZINE] showed a Zone of inhibition [1] of 25.93 mm, a Zone of inhibition [2] of 9.7 mm and a Zone of inhibition [3] of 27.03 mm. It also gave a Zone of inhibition [4] of 21.2 mm, a Zone of inhibition [5] of 26.36 mm and a Zone of inhibition [6] of 27.23 mm. The Zone of inhibition [7] was 25.63 mm, the Zone of inhibition [8] was 24.5 mm and the Zone of inhibition [9] was 17.2 mm. For the same compound, the Zone of inhibition [10] was 29.53 mm, the Zone of inhibition [11] was 20.86 mm and the Zone of inhibition [12] was 29.23 mm.

`N=C(N)NS(=O)(=O)c1ccc(N)cc1` [SULFAGUANIDINE] gave a Zone of inhibition [1] of 21.76 mm, a Zone of inhibition [5] of 17.9 mm and a Zone of inhibition [6] of 10.9 mm. The Zone of inhibition [11] was 11.23 mm.

For `Cc1cc(C)nc(NS(=O)(=O)c2ccc(N)cc2)n1` [SULFAMETHAZINE], the Zone of inhibition [1] was 22.08 mm, the Zone of inhibition [2] was 15.1 mm and the Zone of inhibition [4] was 18.8 mm. For the same compound, the Zone of inhibition [5] was 21.76 mm, the Zone of inhibition [6] was 19.96 mm and the Zone of inhibition [8] was 18.56 mm. The Zone of inhibition [9] was 16.9 mm and the Zone of inhibition [11] was 15.4 mm.

Work on `Cc1nnc(NS(=O)(=O)c2ccc(N)cc2)s1` [SULFAMETHIZOLE] yielded a Zone of inhibition [1] of 20.5 mm, a Zone of inhibition [2] of 16.2 mm and a Zone of inhibition [3] of 30.3 mm. For the same compound, the Zone of inhibition [4] was 22.2 mm, the Zone of inhibition [5] was 19.46 mm and the Zone of inhibition [6] was 19.13 mm. The Zone of inhibition [7] was 27.76 mm, the Zone of inhibition [8] was 25.5 mm and the Zone of inhibition [9] was 17.43 mm. For the same compound, the Zone of inhibition [10] was 29.6 mm, the Zone of inhibition [11] was 18.06 mm and the Zone of inhibition [12] was 29.86 mm.

For `Cc1cc(NS(=O)(=O)c2ccc(N)cc2)no1` [SULFAMETHOXAZOLE], the Zone of inhibition [1] was 27.9 mm, the Zone of inhibition [2] was 19.63 mm and the Zone of inhibition [3] was 11.63 mm. It also gave a Zone of inhibition [4] of 23.23 mm, a Zone of inhibition [5] of 27.43 mm and a Zone of inhibition [6] of 25.46 mm. For the same compound, the Zone of inhibition [7] was 26.46 mm, the Zone of inhibition [8] was 24.03 mm and the Zone of inhibition [9] was 22.93 mm. For the same compound, the Zone of inhibition [10] was 22.43 mm, the Zone of inhibition [11] was 22.8 mm and the Zone of inhibition [12] was 14.92 mm.

Work on `Nc1ccc(S(N)(=O)=O)cc1` [SULFANILAMIDE] yielded a Zone of inhibition [2] of 20.43 mm, a Zone of inhibition [4] of 22.86 mm and a Zone of inhibition [8] of 25.55 mm. For the same compound, the Zone of inhibition [9] was 22.3 mm.
